Measurements from US20110269807A1, “NOVEL TREATMENT FOR AGE RELATED MACULAR DEGENERATION AND OCULAR ISCHEMIC DISEASE ASSOCIATED WITH COMPLEMENT ACTIVATION BY TARGETING 5-LIPOXYGENASE” (ALLERGAN, INC., priority 2010, published 2011).
Entries after “also recorded” stand apart in the source; their conditions may differ.

How the values were obtained:
ARPE-19 cells [1] = assay: Complement mediated cell death assay on RPE cells in the context of oxidative stress (cell protection assay, NIH clinical collection library screen); type: cell-based; conditions: for protection against cell death mediated by complement attack and oxidative stress: versus vehicle (DMSO)
Procedure: ARPE-19 cells were plated at sub confluence in 96 well culture plates and cultured 24 to 48 hrs. The cells were then treated with 1:1000 dilution of each compound from the NIH clinical collection library overnight. The following day culture media was collected and set aside. The cells were washed and then treated with 0.77 mM H2O2 in hanks buffered saline solution (HBSS) for 90 minutes in the presence of fresh compound from NIH clinical collection library at a 1:1000 dilution. Cells were then washed and primed with a solution of HBSS containing 24% S-58 for 30 minutes. After the priming step cells were washed and then treated with 6% C1q deficient human serum in the original cell culture supernatant collected prior to H2O2 treatment. 90 minutes after addition of the human serum cells were labeled with the membrane impermeant nuclear dye SYTOX® orange and the number of positive cells determined. This count was then used to determine level of cell death. Quantitation and imaging were accomplished by capturing a single field per objective using a 10× objective and then counting the number of positive nuclei using metamorph image analysis software. Data was collected and expressed as % protection relative to wells containing vehicle alone (DMSO).
Data was collected and the level of protection by each compound determined by averaging the results of two independent experiments. FIG. 4 is the distribution of results indexed to compound plate (y-axis) and Protection (x-axis). […] FIG. 5 contains a list of compounds with protective properties. Of the 17 compounds selected, six compounds (Zeranol, Penciclovir, Rifapentine, Rifaximin, calcitrol, 3-[3,5-DIBROMO-4-HYDROXYBENZOYL]-2-ETHYLBENZOFURAN) were deemed to function as anti-oxidants in the assay. Of the remaining 11 compounds, four fall into a single class associated with modulation of the arachidonic acid pathway. This included Zileuton, Zafirlukast, Montelukast, and Loxoprofen. […] The targeting was both direct at 5-lipoxygenase (Zileuton) and indirect at the leukotiene receptor (Zafirlukast, Montelukast).
The observation that inhibition of 5-lipoxygenase is protective against the combined effects of oxidative stress and complement attack in ARPE-19 cells prompted us to test the 5 lipoxygenase activating protein inhibitor MK886 for its ability to protect ARPE-19 cells from oxidative stress and complement attack in vitro. The cell protection assay was carried out essentially as described in Examples 1-4.
In addition to the MK886 inhibitor we also evaluated other know 5-lipoxygenase inhibitors, including 2-TEDC and monocyclin, for their ability to protect ARPE-19 cells against oxidative stress and complement attack, using the cell protection assay described in Examples 1-4.

5-lipoxygenase = molecular target: T1, 5-lipoxygenase (Homo sapiens, UniProt P09917); conditions: read-out: known I.C.50 inhibition of 5-lipoxygenase; Cho et al., J Med Chem 1991; cited from earlier work
T1 sequence (P09917 1-674): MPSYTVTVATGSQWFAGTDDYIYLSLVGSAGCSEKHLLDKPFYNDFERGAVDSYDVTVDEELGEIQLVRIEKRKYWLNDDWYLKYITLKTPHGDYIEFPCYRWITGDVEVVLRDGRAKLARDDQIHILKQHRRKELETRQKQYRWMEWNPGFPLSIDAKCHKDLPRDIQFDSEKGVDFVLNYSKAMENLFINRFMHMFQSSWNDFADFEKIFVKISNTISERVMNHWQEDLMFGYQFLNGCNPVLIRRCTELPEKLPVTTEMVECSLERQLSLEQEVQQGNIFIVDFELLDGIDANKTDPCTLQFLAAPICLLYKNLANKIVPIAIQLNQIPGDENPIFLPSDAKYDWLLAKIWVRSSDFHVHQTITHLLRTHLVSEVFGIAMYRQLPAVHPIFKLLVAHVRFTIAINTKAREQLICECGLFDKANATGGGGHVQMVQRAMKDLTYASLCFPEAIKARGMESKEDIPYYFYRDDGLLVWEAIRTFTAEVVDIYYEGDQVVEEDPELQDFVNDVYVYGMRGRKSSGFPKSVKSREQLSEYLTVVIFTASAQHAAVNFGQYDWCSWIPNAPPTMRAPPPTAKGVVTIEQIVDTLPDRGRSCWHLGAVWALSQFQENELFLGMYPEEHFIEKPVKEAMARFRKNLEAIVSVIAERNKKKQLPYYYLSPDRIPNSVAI

ARPE-19 cells [2] = assay: Oxidative stress followed by challenge with complement, cell death; type: cell-based; conditions: then challenge with complement
Source text: Oxidative stress and complement activation are the two most highly cited factors associated with occurrence and progression of AMD. To examine functional consequences of this relationship we treated ARPE-19 cells with either H2O2 or t-BH followed by challenge with complement. […] FACS analysis of ARPE-19 after treatment with t-Bh or H2O2 indicated minimal impact in expression levels (FIG. 3B).

Balb/c mice [3] = assay: Blue light induced retinal damage, outer nuclear layer histology scoring; type: in vivo; conditions: 1 mg/Kg PO BID 14 days; blue light 4800 lux 8 hours
Procedure: Balb/c mice were dosed orally (PO) at 1 mg/Kg starting 16 hours prior to blue light, and then BID for the next 14 days. Control animal received an equivalent volume of vehicle (0.5% Avicel R-91 and 0.1% Tween-80 in dH2O) to compound treated animals.
Animals were first dark adapted for 16 hours prior to blue light. Animals were then exposed to blue light at 4800 lux for 8 hours. Animals were then moved to normal housing conditions.
Eyes were immersion fixed over night at room temperature in Davidson's Fix special (BBC Biochemical, Mt Vernon, Wash.), dehydrated for 1 hr in 50% EtOH at room temperature, and then placed into 70% EtOH at room temperature. Eyes were stored in 70% EtOH until subjected to automated paraffin processing. After processing, eyes were embedded in paraffin, sectioned on a rotary microtome at 5 μm thickness through the optic nerve head parallel to the vertical meridian, and mounted on glass slides. Sections were baked onto slides, subjected to automated H&E staining, and coverslipped using permanent mounting medium. Stained tissue sections were then examined by an observed blinded to treatment regiments and scored to determine the level of damage to the outer nuclear layer.

Balb/c mice [4] = assay: Blue light induced retinal damage, ERG; type: in vivo; conditions: 1 mg/Kg PO BID 14 days; ERG 2 weeks post blue light; p<0.05
Source text: To further explore the protective effects of inhibition of the 5-lipoxygenase pathway, we examined the ability of 5-lipoxygenase inhibition in two in vivo models. The first in vivo model was a model of retinal oxidative stress induced by intravitreal injection of Paraquat in SOD1−/+ animals (Dong, A., et al., Superoxide dismutase 1 protects retinal cells from oxidative damage. J Cell Physiol, 2006. 208(3): p. 516-26). In addition to elevation of oxidative stress Paraquat is also known to induce activation of complement (Sun, S., et al. (2011 Mar. 18) “Complement Inhibition Alleviates Paraquat-Induced Acute Lung Injury” Am J Respir Cell Mol Biol. EPub), allowing us to examine effects of oxidative stress and complement activation in vivo similar to that observed in the in vitro RPE assay, above. The second in vivo model in which we examined the effects of 5-lipoxygenase inhibition was a rodent light induced retinal degeneration model. […]
The ERG was performed 2 weeks post blue light (4 days post OCT to allow for cataracts to clear). […] The ERG was then recorded with the animal on a heating pad (takes 7-8 minutes). Animals were revived by administration of 0.5 mg/kg atipamezole (injected i.p.), returned to their cages, and warmed using a heating pad and monitored until awake.

## N#C/C(=C\c1ccc(O)c(O)c1)C(=O)OCCc1cccs1 [2-TEDC]
ARPE-19 cells [1]; Homo sapiens, FIG. 7, read-out: I.C.50 of blocking cell death within the assay system
  IC50: 100 nM
ARPE-19 cells [1]; concentration = known I.C.50 for 12 lipoxygenase
  activity at the known I.C. 50 for 12 lipoxygenase: little activity
ARPE-19 cells [1]; concentration = known I.C.50 for 15 lox
  protection at the known I.C.50 for 15 lox: ~100%
ARPE-19 cells [1]
  protection against cell death mediated by complement attack and oxidative stress: dose dependently protected; also recorded: dose dependent protection
5-lipoxygenase
  IC50: 90 nM

## OO [H2O2]
ARPE-19 cells [2]
  increase in cell death: > 10 fold

## CC(C)c1ccc2c(c1)c(SC(C)(C)C)c(CC(C)(C)C(=O)[O-])n2Cc1ccc(Cl)cc1.[Na+] [MK886, 1-[(4-chlorophenyl)methyl]-3-[(1,1-dimethylethyl)thio]-α,α-dimethyl-5-(1-methylethyl)-1H-indole-2-propanoic acid, sodium salt]
ARPE-19 cells [1]; sodium salt
  protection against cell death mediated by complement attack and oxidative stress: dose dependently protected; also recorded: protects; also recorded: effectively blocked cell death in a dose dependent manner

## c1ccc2c(c1)SCc1c-2[nH]c2ccccc12 [PD146176, 6,11-dihydro-[1]benzothiopyrano[4,3-b]indol]
ARPE-19 cells [1]
  protection against cell death mediated by complement attack and oxidative stress: no protection; also recorded: no protective activity

## Cn1nccc1-c1ccc(Sc2cccc(C3(C(N)=O)CCOCC3)c2)cc1 [PF-4191834, 4-(3-(4-(1-Methyl-1H-pyrazol-5-yl)phenylthio)phenyl)-tetrahydro-2H-pyran-4-carboxamide]
Balb/c mice [3]
  retinal structure / outer nuclear layer thickness: protected retinal structure and preserved photoreceptors
Balb/c mice [4]
  protection against loss of retinal ERG A-wave amplitude: protected against the loss of ERG A-wave amplitude; also recorded: protected against functional loss

## CC(C)(C)OO [t-BH]
ARPE-19 cells [2]
  increase in cell death: 20-30%
